Where “and” joins values, the source holds several entries; their conditions need not be identical. Identical values can stand only once. Counter-ions that a name gives are not always drawn. Like-named read-outs stand apart in the source and are kept apart here.
Legend:
[1] = tested on: polyamine transport apparatus; experiment: Competition with radiolabeled spermidine for uptake into L1210 cells (Ki); format: cell-based, Murine; conditions: L1210 cells, estimated from Lineweaver-Burke plots, read-out: Ki, [3H]-spermidine transport
Procedure: The same cell line was utilized to evaluate the tetraamines's competition with radiolabeled spermidine for the polyamine uptake apparatus (Ki). The Ki values here are the concentrations of drugs required to inhibit the uptake of radioactive spermidine transport by 50% (Table 1).
Uptake Determinations. The polyamine derivatives were studied for their ability to compete with [^3 H]SPD or [^14 C]SPD for uptake into L1210 leukemia cells in vitro. Cell suspensions were incubated in 1 ml of RPMI-1640 containing 1, 2, 4, 6, 8 and 10 μm radiolabeled SPD alone or with the additional presence of 10, 25 and 50 μm polyamine analogue for 20 minutes at 37° C. At the end of the incubation period, tubes were centrifuged at 900 g for 5 minutes at 0-4° C. The pellet was washed twice with 5 ml of cold RPMI-1640 containing 1 mm SPD, dissolved in 200 μl of 1N NaOH at 60° C. for 1 hour, and neutralized with 1N HCl. The material was transferred to a vial for scintillation counting.

L1210 cells [2] = experiment: L1210 growth inhibition, IC50 determinations; format: cell-based, Murine
Procedure: IC50 Determinations. Cells were grown in 25 cm^2 tissue culture flasks in a total volume of 10 ml. Cultures were treated while in logarithmic growth (0.5-1.0×10^5 cells/ml) with the polyamine derivative diluted in sterile water and filtered through a 0.2 μm filter.
After the indicated time periods, cells were removed from the incubator for counting. Cell number was determined by electronic particle counting (Model ZF coulter counter, Coulter Electronics, Hialeah, Fla.) and confirmed periodically with hemocytometer measurements.
The percentage of control growth was determined as follows: [formula]

L1210 cells [3] = experiment: Polyamine pool analysis in analogue-treated L1210 cells (HPLC); format: cell-based, Murine; conditions: for PUT level relative to untreated controls / SPD level relative to untreated controls / SPM level relative to untreated controls: L1210 cells, control = 100%
Procedure: Polyamine Pool Analysis. While in logarithmic growth, cells were treated with the polyamine derivatives. […] Each supernatant was frozen at -20° C. until analysis by HPLC.

NMDA receptor = experiment: NMDA assay: specific [3H]MK-801 binding to washed rat cerebral cortical membranes; conditions: 100 μm L-glutamate, 100 μm glycine, 2 nm [3H]MK-801
From the text: FIG. 4 depicts the effects of (HO)2 DEHSPM and DEHSPM on the NMDA receptor (MK-801 binding). Each data point represents the mean ±s.d. of three experiments. Each experiment was, in turn, performed in triplicate. "100% activity" is defined as the amount of specific MK-801 binding to washed rat cerebral cortical membranes in the presence of saturating concentrations of coagonists (100 μm L-glutamate, 100 μm glycine) and 2 nm [^3 H]MK-801.
NMDA Assay. The procedure for measuring specific binding of [^3 H]MK-801 to the N-methyl-D-aspartate receptor complex was a modification of the method of Ransom and Stec [J. Neurochem., Vol. 51, pages 830-836 (1988)]. Cerebral cortices from young male Sprague-Dawley rats (200-300 g) were homogenized with 10 volumes ice-cold 0.32M sucrose using a motor-driven glass/Teflon homogenizer. The homogenate was centrifuged at 1,000 g for 10 minutes and the pellet was discarded. The supernatant was then centrifuged at 18,000 g for 20 minutes. The 18,000 g pellet was then resuspended in 10 volumes buffer A (5 mm Tris-HCl, pH 7.7) at 4° C., homogenized using high-intensity ultrasound and centrifuged at 8,000 for 20 minutes. The supernatant and upper buffy coat of the pellet were combined and centrifuged at 50,000 g for 20 minutes. The pellet was then resuspended in 10 volumes buffer A and homogenized using high-intensity ultrasound. These resuspended membranes were then centrifuged at 50,000 g, discarding the supernatant. The membranes were washed in this manner an additional three times and stored as a frozen suspension at -80° C. for at least 18 hours, but no longer than 2 weeks before use.
For binding experiments, frozen membranes were thawed, pelleted at 50,000 g for 20 minutes and washed as described above, except that 20 volumes of buffer A were used for resuspension, for a total of four times. The final pellet was resuspended in buffer B (5 mm Tris-HCl, pH 7.5) at 23° C. The binding assay mixture was 1.00 ml buffer B containing 200-300 μg membrane protein, 100 μm L-glutamate, 100 μm glycine, 2 nm [^3 H]MK-801 and tetraamine at the following concentrations: 0 ("100%+L-glu,+gly-Control") and 0.05, 0.1, 0.5, 1, 5, 10, 50, 100, 500 and 1,000 μm. Non-specific binding was determined using 100 μm MK-801.
Binding assays were performed in triplicate at 23° C. for one hour and were terminated by filtration through Whatman GF/B glass fiber filters followed by three 4.0 ml rinses of ice-cold buffer B using a Brandel M-48 Cell Harvester.

[4] = Metabolism of (HO)2 DEHSPM v. DEHSPM in mouse liver and kidney (HPLC); format: in vivo
Procedure: Metabolism of (HO)2 DEHSPM v. DEHSPM in Mouse Liver and Kidney. […] In ease case, animals were sacrificed for HPLC analysis one day after the final dose.
HPLC Analysis of Polyamines. Various tissues including the liver and kidney were prepared for HPLC analysis of polyamine content. In order to facilitate their handling, the organs were submerged in liquid nitrogen. Once frozen and weighed, the tissues were homogenized (Tissuemizer, Tekmar, Cincinnati, Ohio) in 1.2N perchloric acid (containing 1,7-diaminoheptane internal standard) in a 1:20 (w/v) ratio. The tissue homogenates were then freeze-thawed three times and stored in a -70° C. freezer until HPLC analysis was performed.
Each chromatographic assay included calibration standards which were treated in the same manner as the samples. […] The concentration of each polyamine was calculated from the peak area by calibration curves obtained by non-weighted least squares linear regression. Peak area and linear regression calculations were performed on a Macintosh Centris 650 with Rainin Dynamax HPLC Method Manager software (Rainin Instrument Co., Ridgefield, N.J.).

[5] = 3.5 μm analogue, listed as (OH)2 DEHSPM
[6] = 24 h after regimen, normalized for 30 g mouse
[7] = liver and kidneys, 24 h after regimen, 30 g mouse
[8] = mouse, one day after subchronic equimolar i.p. regimen

## CCNCC[C@@H](O)CNCCCCNC[C@H](O)CCNCC [(HO)2 DEHSPM, N^1,N^14 -Diethyl-3(R),12(R)-dihydroxyhomospermine tetrahydrochloride]
[1]; listed as (OH)2 -DEHSPM
  Ki: 1.8 µM
[1]
  Ki: 2 µM and 1.8 µM
L1210 cells [2]; Mus musculus, L1210, 96 h, read-out: IC50 96 h, L1210 cells, 96 h
  IC50: 0.07 µM
L1210 cells [2]; Mus musculus, read-out: IC50 48 h, L1210 cells, 48 h
  IC50: 0.6 µM
L1210 cells [2]; read-out: IC50 96 h, L1210 cells, 96 h
  IC50: 0.05 to 0.09 µM
L1210 cells [3]; 0.7 μm analogue
  PUT level relative to untreated controls: 45%
  SPD level relative to untreated controls: 57%
  SPM level relative to untreated controls: 96%
L1210 cells [3]; 3.5 μm analogue
  PUT level relative to untreated controls: below detectable limits
  SPD level relative to untreated controls: below detectable limits
  SPM level relative to untreated controls: 60%
L1210 cells [3]; [5]
  PUT level relative to untreated controls: 0%
  SPD level relative to untreated controls: 0%
  SPM level relative to untreated controls: 68%
L1210 cells [3]; in vitro conditions
  N-deethylation by L1210 cells: do not N-deethylate
NMDA receptor
  concentration showing agonist activity on MK-801 binding: 0.5-1.0 μm
  concentrations of maximal antagonism of MK-801 binding: ≥ 50 μm
  concentrations showing marked antagonist activity on MK-801 binding: above 5 μm
[4]; [6]
  % of total dose present as total drug + metabolite, Kidneys: 4.04%
  % of total dose present as total drug + metabolite, Liver: 5.96%
  % of total dose present as unmetabolized parent drug, Kidneys: .357 ± 0.34%
  % of total dose present as unmetabolized parent drug, Liver: 3.39 ± 0.48%
  Amount of total dose present as dideethylated metabolite HSPM/(HO)2 HSPM, Kidneys: 0.030 µmol
  Amount of total dose present as dideethylated metabolite HSPM/(HO)2 HSPM, Liver: 0.166 µmol
  Amount of total dose present as total drug + metabolite, Kidneys: 0.261 µmol
  Amount of total dose present as total drug + metabolite, Liver: 0.385 µmol
  Amount of total dose present as unmetabolized parent drug, Kidneys: 0.231 µmol
  Amount of total dose present as unmetabolized parent drug, Liver: 0.219 µmol
[4]; [7]
  % of total dose present as total drug + metabolite, Both Tissues: 10.01%
  % of total dose present as unmetabolized parent drug, Both Tissues: 6.96%
  Amount of total dose present as dideethylated metabolite HSPM/(HO)2 HSPM, Both Tissues: 0.196 µmol
  Amount of total dose present as total drug + metabolite, Both Tissues: 0.646 µmol
  Amount of total dose present as unmetabolized parent drug, Both Tissues: 0.450 µmol
[4]; [8]
  level of unchanged drug in kidney: 481±46 nmol/g wet weight
  level of unchanged drug in liver: 83.6±11.7 nmol/g wet weight and 84±12 nmol/g wet weight
